# Test system: chiens Beagle
# Experiment: Anti-emetic test: apomorphine-induced vomiting in Beagle dogs
# Format: in vivo
# Conditions: for Diminution par rapport au témoin (%): percentage decrease in number of vomitings vs control trial, compound about 1 mg/kg intramuscular at time 0, apomorphine about 100 µg/kg subcutaneous 30 minutes later
# Protocol: L'étude a été effectuée sur des chiens Beagle provenant de l'élevage du Centre de RecherchesBiologiques de Baugy.
# On a tout d'abord effectué un essai témoin, puis six jours après, on a testé notamment les quatre composés mentionnés ci-dessus.
# Pendant l'essai témoin, les animaux reçoivent 100 µg/kg d'apomorphine, qui provoque des vomissements,
# Lorsqu'on teste les produits conformes à l'invention et le racémique du composé n° 1 135, les animaux reçoivent : • - à l'instant 0, une injection intra-musculaire du composé étudié à raison d'environ 1 mg/kg • - 30 minutes plus tard, une injection sous- cutanée d'apomorphine est effectuée, d'environ 100 µg/kg.
# Les résultats donnés ci-après correspondent aux pourcentages de diminution du nombre de vomissements par rapport à l'essai témoin.
Compound,Diminution par rapport au témoin (%),"nombre de vomissements / activité (result in words, same test (about 1 mg/kg i.m., apomorphine about 100 µg/kg s.c. 30 min later))"
"CCN1CCCCCC1CNS(=O)(=O)c1cc(Cl)c(N)cc1OC (racemic) [Composé n° 1 149, amino-4 chloro-5 méthoxy-2 N-(N-éthyl méthyl-2 azépinyl) benzènesulfonamide]",60,–
"CCN1CCCC1CNS(=O)(=O)c1cc(Cl)c(N)cc1OC (racemic) [racémique du lévo-gyre n° 1 135, reference compound]",10,–
CCN1CCC[C@H]1CNS(=O)(=O)c1cc(Cl)c(OC)cc1OC [Composé n° 1 138],20,–
CCN1CCC[C@H]1CNS(=O)(=O)c1cc(Cl)c(N)cc1OC [Composé n° 1 135],50,beaucoup plus actif que le racémique correspondant
